Data as given in patent publication US4510136A (priority 1983, dated 1985).

Columns and labels:
[1] = test system: Helminthosporium maydis; test: Southern corn leaf blight control on sprayed corn seedlings (Example 83); type: in vivo; settings: Bipolaris maydis, 192 h, 100 ppm spray, day before inoculation
Method in brief: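 Corn seedlings were sprayed to run-off with 100 ppm suspensions (6% acetone, 250 ppm TREM 014) and spore-inoculated the following day. Disease and growth reduction were rated after 24 h saturated humidity at 20° plus 7 days in a growth room.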

[2] = test system: Cercospora arachidicola; test: Peanut early leafspot control on sprayed peanut seedlings (Example 84); type: in vivo; settings: Mycosphaerella arachidis, 360 h, 100 ppm spray, day before inoculation; read-out: % Control Peanut Easly Leafspot
[3] = test system: Rhizoctonia solani; test: Rice sheath blight control on sprayed rice seedlings (Example 87); type: in vivo; settings: Rhizoctonia solani, 168 h, 100 ppm spray, day before inoculation
Method in brief: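 Disease ratings followed 7 days' growth-room incubation of seedlings given a bran/R. solani mycelium inoculum. Inoculation took place one day after spraying to run-off. The spray was a 100 ppm compound suspension in water containing 6% acetone and 250 ppm TREM 014.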

[4] = test system: bean seedlings; test: Phytotoxicity on bean seedlings (Example 85); type: in vivo; parameters: key: G = growth reduction; H = hormonal effects; settings: 80 ppm spray
[5] = test system: Pyricularia oryzae; test: whole plant or invertebrate; type: in vivo; settings: Pyricularia oryzae, 168 h, read-out: % Control of Rice Blast, 100 ppm spray, day before inoculation
[6] = test system: cucumber seedlings; test: Phytotoxicity on cucumber seedlings (Example 80); type: in vivo; parameters: key: G = growth reduction; H = hormonal effects; settings: 100 ppm spray
Method in brief: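 Disease was rated 7 days after inoculation with powdery mildew spores, which followed one day after a run-off spray of 100 ppm compound in water with 6% acetone and 250 ppm TREM 014. Growth reduction or hormonal effects on the seedlings were recorded as phytotoxicity.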

[7] = test system: Pythium aphanadermatum; test: Pythium control on cotton, seed coating (Example 91); type: in vivo; settings: 168 h; for pest or weed control at 2 g/kg seed: 2 gm/kg seed
Method in brief: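 Cotton seeds coated with formulated compound at 2 gm/kg seed, air dried, and planted in soil amended with Pythium aphanadermatum, sand and corn meal. Held 1 week at room temperature before disease rating.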

[8] = test system: 5 Phytophthora species; type: cell-based; settings: 200.0 ppm in V-8 agar, 22° C., 6 days
[9] = test system: Erysiphe graminis; test: Barley powdery mildew control on sprayed barley seedlings (Example 81); type: in vivo; settings: Blumeria graminis, 168 h; for pest or weed control at 100 ppm: 100 ppm spray, day before inoculation
Description: The compounds of the previous examples were again dissolved in acetone in an amount equal to 6% of the final volume and then suspended at a concentration of 100 ppm in purified water containing 250 ppm of the surfactant TREM 014 (polyhydric alcohol esters). These suspensions were sprayed to the point of run-off on barley seedlings. The following day, the plants were inoculated with a spore suspension of the fungus Erysiphe graminis, causal agent of barley powdery mildew, and incubated in growth room for 7 days. Disease ratings were then made. Treated plants from successful treatments had little or no powdery mildew in contrast to untreated plants which were covered with powdery mildew.

[10] = test system: Monilinia fructicola; test: Stone fruit brown rot control on dipped canned peach halves (Example 86); settings: 120 h, 100 ppm dip, percent growth inhibition of colonies after five days
Method in brief: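 Canned peach halves were dipped 3 min in a 100 ppm compound suspension (5% acetone, 700 ppm TREM 014 surfactant in water) and air-dried. Each was inoculated with two Monilinia fructicola mycelium pieces and incubated 5 days in sterile containers. Colony radii were measured, and percent control was expressed as growth inhibition versus untreated peaches.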

[11] = test system: Puccinia recondita var. tritici; test: Wheat leaf rust control on sprayed wheat seedlings (Example 79); type: in vivo; settings: Puccinia recondita, 168 h; for pest or weed control at 100 ppm: 100 ppm spray, day before inoculation
Method in brief: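 Disease was scored as leaf rust pustules 7 days after a 24 h, 20° saturated-humidity incubation of seedlings inoculated with P. recondita var. tritici spores. Inoculation followed by one day a run-off spray of 100 ppm compound in water containing 6% acetone and 250 ppm TREM 014.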

[12] = test system: Venturia inaequalis; test: Apple scab control on sprayed apple seedlings (Example 82); type: in vivo; settings: Venturia inaequalis; for pest or weed control at 100 ppm: 100 ppm spray, day before inoculation
[13] = test system: Phytophthora infestans; test: whole plant or invertebrate; type: in vivo; settings: Phytophthora infestans, in Solanum lycopersicum, 168 h, read-out: % Control of Tomato Late Blight, 100 ppm spray, day before inoculation
[14] = test system: Erysiphe cichoracearum; test: Cucumber powdery mildew control on sprayed cucumber seedlings (Example 80); type: in vivo; settings: Golovinomyces cichoracearum, 168 h; for pest or weed control at 100 ppm: 100 ppm spray, day before inoculation
[15] = test system: corn seedlings; test: Phytotoxicity on corn seedlings (Example 83); type: in vivo; parameters: key: G = growth reduction; H = hormonal effects; settings: 100 ppm spray
Description: The compounds of the previous examples were again dissolved in acetone in an amount equal to 6% of the final volume and then suspended at a concentration of 100 ppm in purified water containing 250 ppm of the surfactant TREM 014 (polyhydric alcohol esters). These suspensions were sprayed to the point of run-off on corn seedlings. The following day, the plants were inoculated with a spore suspension of Helminthosporium maydis, causal agent of southern corn leaf blight, and incubated in a saturated humidity chamber at 20° for 24 hours and then in a growth room for an additional 7 days, when disease ratings were made. Treated plants from successful treatments had few or no lesions while the untreated plants had numerous lesions on each leaf. Phytotoxicity expressed as growth reduction was observed on some of the plants in association with disease control.

[16] = test system: Pythium aphanadermatum; test: Pythium control on corn, seed coating (Example 92); type: in vivo; settings: 504 h, 2 gm/kg seed
Method in brief: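 Formulated compounds were coated onto corn seeds at 2 gm/kg seed, air-dried and sown in soil infested with Pythium aphanadermatum at a rate lethal to most untreated seeds. Seeds were held 2 weeks at 49° F, then 1 week at 70° F, before disease rating.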

[17] = test system: apple seedlings; test: Phytotoxicity on apple seedlings (Example 82); type: in vivo; parameters: key: G = growth reduction; C = chlorosis; B = burn; settings: applied at 400 ppm
Description: These suspensions were sprayed to the point of run-off on apple seedlings. The following day, the plants were inoculated with a spore suspension of the fungus Venturia inaequalis, causal agent of apple scab, and incubated in a saturated humidity chamber at 20° for 24 hours and then in a growth room for an additional 10-12 days. Treated plants from successful treatments had fewer apple scab lesions when compared to untreated plants which were covered with scab lesions. Phytotoxicity expressed as growth reduction was observed on some of the plants in association with disease control.

SMILES	pest or weed control at 100 ppm [1] [%]	pest or weed control at 100 ppm [2] [%]	pest or weed control at 100 ppm [3] [%]	Phytotoxicity on bean [4]	pest or weed control at 100 ppm [5] [%]	pest or weed control at 2 g/kg seed [7] [%]	No. of 5 Phytophthora species controlled in vitro [8]	pest or weed control at 100 ppm [9] [%]	inhibition of growth at 100 µg/mL [10] [%]	pest or weed control at 100 ppm [11] [%]	pest or weed control at 100 ppm [12] [%]	pest or weed control at 100 ppm [13] [%]	pest or weed control at 100 ppm [14] [%]	further results
C[Si](C)(Cn1cncn1)c1ccc(Cl)cc1Cl [(2,4-Dichlorophenyl)dimethyl(1H-1,2,4-triazol-1-ylmethyl)silane]	90	100	0	G	0	0	0	100	100	90	100	0	100	Phytotoxicity on cucumber [6]: H
C[Si](C)(Cn1cncn1)c1ccc(Cl)cc1 [(4-Chlorophenyl)dimethyl(1H-1,2,4-triazol-1-ylmethyl)silane]	0	90			0					100	100	0	100	Phytotoxicity on corn [15]: G; pest or weed control at 0.5 g/kg seed ([7]; 0.5 gm/kg seed): 53%; pest or weed control at 2 g/kg seed [16]: 8%
CCCCCCCCCCCC[Si](C)(C)Cn1cncn1 [Dodecyl(dimethyl)(1H-1,2,4-triazol-1-ylmethyl)silane]	0													pest or weed control at 200 ppm ([9]; applied at 200 ppm): 100%; pest or weed control at 200 ppm ([11]; applied at 200 ppm): 100%; pest or weed control at 400 ppm ([12]; applied at 400 ppm): 40%; Phytotoxicity on apple [17]: B; pest or weed control at 400 ppm ([14]; applied at 400 ppm): 60%
C[Si](Cn1cncn1)(c1ccc(Cl)cc1)c1ccc(Cl)cc1 [bis(4-Chlorophenyl)methyl(1H,-1,2,4-triazol-1-ylmethyl)silane]	80	100	0	G	90	0	0	100	95	90	100	0	100	
